Numbers after ± are expanded uncertainties.
Details: Liquid, Frequency=2 MHz, Single path-length method

CCO [ethanol]
Details	speed of sound [m/s]
323.31 K, 1410 kPa	1070.7 ± 1.2
323.31 K, 5245 kPa	1096.8 ± 1.2
323.31 K, 11101 kPa	1135 ± 1.3
323.31 K, 17687 kPa	1174.5 ± 1.3
323.31 K, 23114 kPa	1204.2 ± 1.4
323.31 K, 30237 kPa	1241.9 ± 1.5
323.31 K, 36831 kPa	1274.5 ± 1.5
323.31 K, 43809 kPa	1306 ± 1.6
323.31 K, 50864 kPa	1337.3 ± 1.6
323.31 K, 58500 kPa	1369.4 ± 1.7
323.31 K, 62862 kPa	1386.2 ± 1.7
347.1 K, 1446 kPa	991.29 ± 1.1
347.1 K, 4092 kPa	1011.8 ± 1.1
347.1 K, 7163 kPa	1035 ± 1.1
347.1 K, 14616 kPa	1085.6 ± 1.2
347.1 K, 21177 kPa	1126.4 ± 1.3
347.1 K, 28408 kPa	1168.1 ± 1.3
347.1 K, 35022 kPa	1203.4 ± 1.4
347.1 K, 42067 kPa	1238.6 ± 1.4
347.1 K, 48843 kPa	1270.3 ± 1.5
347.1 K, 54137 kPa	1294.1 ± 1.5
347.1 K, 58348 kPa	1312.6 ± 1.6
347.1 K, 62859 kPa	1331.6 ± 1.6
369.38 K, 1432 kPa	914.53 ± 1
369.38 K, 3923 kPa	936.5 ± 1
369.38 K, 7109 kPa	963.26 ± 1.1
369.38 K, 11382 kPa	996.24 ± 1.1
369.38 K, 19601 kPa	1053.8 ± 1.2
369.38 K, 27704 kPa	1104.7 ± 1.2
369.38 K, 33060 kPa	1135.3 ± 1.3
369.38 K, 41165 kPa	1179.1 ± 1.4
369.38 K, 49420 kPa	1220.3 ± 1.4
369.38 K, 54796 kPa	1246.1 ± 1.4
369.38 K, 58367 kPa	1261.5 ± 1.5
369.38 K, 65148 kPa	1291.2 ± 1.5
397.28 K, 1546 kPa	811.26 ± 0.98
397.28 K, 4302 kPa	840.39 ± 0.97
397.28 K, 7333 kPa	870.18 ± 0.99
397.28 K, 12482 kPa	915.79 ± 1
397.28 K, 18105 kPa	960.62 ± 1.1
397.28 K, 24432 kPa	1006.2 ± 1.1
397.28 K, 29996 kPa	1043.3 ± 1.1
397.28 K, 36074 kPa	1080.7 ± 1.2
397.28 K, 44752 kPa	1129.5 ± 1.3
397.28 K, 49805 kPa	1156 ± 1.3
397.28 K, 58415 kPa	1198.6 ± 1.4
397.28 K, 63790 kPa	1223.5 ± 1.4
422.9 K, 1514 kPa	701.53 ± 0.95
422.9 K, 5675 kPa	755.36 ± 0.94
422.9 K, 9530 kPa	798.44 ± 0.93
422.9 K, 15206 kPa	853.77 ± 0.95
422.9 K, 23492 kPa	923.37 ± 1
422.9 K, 31793 kPa	984.06 ± 1.1
422.9 K, 38446 kPa	1027.7 ± 1.1
422.9 K, 47571 kPa	1082 ± 1.2
422.9 K, 53132 kPa	1112.2 ± 1.2
422.9 K, 58734 kPa	1141.2 ± 1.3
422.9 K, 63754 kPa	1166.2 ± 1.3

Source: the NIST ThermoML archive (doi:10.1021/acs.jced.7b01018)
